{
  "source": "patent US8354518B2",
  "about": "“HCV replicons containing NS5B from genotype 2B” (Merck Sharp & Dohme Corp., priority 2003, dated 2013)",
  "format_in_all_cases": "cell-based, Hepatitis C virus (HCV)",
  "key": {"Con1-2bM31I": {"molecular_target": "Con1-2bM31I", "assay": "β-lactamase reporter replicon assay, Con1-2bM31I chimeric replicon", "conditions": "Con1-2bM31I replicon in MR2 (Huh7 derived) cells, two days with drug, percent of DMSO control, 4 parameter fit", "experimental": "(§1) Selection of persistently replication cells lines expressing β-lactamase, using bla:2b chimeric replicons each harboring a different mutation (N24S, M31I, I392L) defined in the Neo^r selection studies described above, was performed in the enhanced replication Huh7 derived cell line MR2. (Murray et al., J. of Virology, 77:2928-2935, 2003.) To generate RNA for transfection, plasmids were linearized by digestion of an XbaI site distal to the replicon sequences. RNA was generated using MEGAscript™ (Ambion, Austin, Tex.) and quantitated by UV absorbance.\n(§2) MR2 was maintained in Dulbecco's modified Eagle's medium (DMEM) supplemented with 10% fetal bovine serum, nonessential amino acids, 2 mM GlutaMAX, and Penn/Strep (Invitrogen Corp., Carlsbad, Calif.). Cells were seeded the night prior to transfection at a density of 300,000 cells per well in a 6-well dish. A mixture of 5 μg RNA, 12 μl of DMRE-C (Invitrogen Corp., Carlsbad, Calif.), and 2 ml of Opti-Mem (Invitrogen Corp., Carlsbad, Calif.) media was prepared and allowed to sit for 10 minutes. During this time media was removed from the MR2 cells, cells were washed once with Opti-Mem, then the RNA:DMRE-C mixture was added dropwise, and incubated for ˜8 hours. Transfection media was removed by aspiration, and replaced with 2 ml DMEM."}, "BK-2bM31I": {"molecular_target": "BK-2bM31I", "assay": "β-lactamase reporter replicon assay, BK-2bM31I chimeric replicon", "conditions": "BK-2bM31I replicon in MR2 (Huh7 derived) cells, two days with drug, percent of DMSO control, 4 parameter fit", "experimental": "as §1, §2"}, "BK NS5a268S-2bN24S": {"molecular_target": "BK NS5a268S-2bN24S", "assay": "β-lactamase reporter replicon assay, BK NS5a268S-2bN24S chimeric replicon", "conditions": "BK NS5a268S-2bN24S replicon", "experimental": "as §1, with “absorbance. […]” for “absorbance.”\n(§3) The next morning cells were expanded into two T75 flasks and grown for an additional three days. A duplicate well for each replicon construct was analyzed for β-lactamase activity to verify that the transfection efficiency was >90%.\n(§4) On day 4 cells from one flask were collected, counted, and seeded into a 96 well Cytostar plate at a density of 7,500 cells/well in the presence of 1 μM clavulonic acid. […] Simultaneously, the other flasks were analyzed for β-lactamase activity to verify both that activity from a non-replicating control sub-genomic replicon was undetectable, and establish the day 4 replication activity of the test replicons. […] Cells with drug were incubated for two days, and analyzed as described in Example 4. […]"}, "BK-2b N24S/L392I": {"molecular_target": "BK-2b N24S/L392I", "assay": "β-lactamase reporter replicon assay, BK-2b N24S/L392I chimeric replicon", "conditions": "BK-2b N24S/L392I replicon", "experimental": "as §1, with “absorbance. […]” for “absorbance.”\nas §3, §4"}, "[1]": {"system": "bk:2B bla chimeric replicon bearing change at residue 24", "assay": "β-lactamase reporter replicon assay, bk:2B bla chimeric replicon with change at residue 24", "conditions": "at the EC95 for 2′C-methyladenosine; replicon not robust enough for IC50 determination", "experimental": "as §1\n(§5) On day 4 cells from one flask were collected, counted, and seeded into a 96 well Cytostar plate at a density of 7,500 cells/well in the presence of 1 μM clavulonic acid. […] Simultaneously, the other flasks were analyzed for β-lactamase activity to verify both that activity from a non-replicating control sub-genomic replicon was undetectable, and establish the day 4 replication activity of the test replicons. […] Cells with drug were incubated for two days, and analyzed as described in Example 4.\n(§6) Medium was removed by aspiration and cells were stained for 2 hours with CCF4-AM (Invitrogen Corp., Carlsbad, Calif.) in DMEM supplemented with 25 mM HEPES, pH 8.0. Fluorescence due to β-lactamase activity was measured through excitation at 405 nm, followed by measurement of the emission at 460 nm using a CytoFluor 4000 fluorescence plate reader. […]"}, "[2]": {"system": "bk:2B bla chimeric replicon bearing change at residue 392", "assay": "β-lactamase reporter replicon assay, bk:2B bla chimeric replicon with change at residue 392", "conditions": "at the EC95 for 2′C-methyladenosine; replicon not robust enough for IC50 determination", "experimental": "as §1, §5, §6"}},
  "data": [
    {"smiles": "C[C@@]1(O)[C@H](O)[C@@H](CO)O[C@H]1n1cnc2c(N)ncnc21", "note": "[2′C-methyladenosine]", "values": [
      {"measurement": "EC50", "setting": "Con1-2bM31I", "value": 407, "unit": "nM"},
      {"measurement": "EC50", "setting": "BK-2bM31I", "value": 667, "unit": "nM"},
      {"measurement": "EC50", "setting": "BK NS5a268S-2bN24S", "value": 982, "unit": "nM"},
      {"measurement": "EC50", "setting": "BK-2b N24S/L392I", "value": 185, "unit": "nM"},
      {"measurement": "inhibition of limited replication", "setting": "[1]", "value": "could be inhibited"},
      {"measurement": "inhibition of limited replication", "setting": "[2]", "value": "could be inhibited"}
    ]}
  ]
}
